Laboratory results: patent US20170150719A1, “FUNGICIDAL PYRAZOLES AND THEIR MIXTURES” (E I DU PONT DE NEMOURS AND COMPANY, priority 2010, published 2017)

Tests used:
[1] = system: Alternaria solani; assay: Test B: tomato early blight, preventive spray on tomato seedlings, visual disease rating; conditions: for pest or weed control at 200 µg/mL: Alternaria solani, in Solanum lycopersicum, read-out: Test B rating (disease control); for Test B rating (% disease control) / Test B rating (disease control): tomato early blight, 100 = 100% disease control; for Test B rating (% disease control): preventive spray, rating without asterisk; for Test B rating (disease control): 0 = no disease control relative to the controls
[2] = system: Botrytis cinerea; assay: Test A: tomato Botrytis, preventive spray on tomato seedlings, visual disease rating; conditions: 100 = 100% disease control; for pest or weed control at 200 µg/mL: Botrytis cinerea, in Solanum lycopersicum, read-out: Test A rating (disease control), tomato Botrytis; for pest or weed control at 200 µg/mL / Test A rating (disease control): 0 = no disease control relative to the controls; for Test A rating (% disease control) / Test A rating (disease control): tomato Botrytis; for Test A rating (% disease control): preventive spray, 0 = no control relative to controls, rating without asterisk
Experimental: General protocol for preparing test suspensions for Tests A-I: the test compounds were first dissolved in acetone in an amount equal to 3% of the final volume and then suspended at the desired concentration (in ppm) in acetone and purified water (50/50 mix by volume) containing 250 ppm of the surfactant Trem® 014 (polyhydric alcohol esters). The resulting test suspensions were then used in Tests A-I. Each test was conducted in triplicate, and the results were averaged. Spraying a 200 ppm test suspension to the point of run-off on the test plants was the equivalent of a rate of about 800 g/ha. Unless otherwise indicated, the rating values indicate a 200 ppm test suspension was used. (An asterisk “*” next to the rating value indicates a 40 ppm test suspension was used.)
The test suspension was sprayed to the point of run-off on tomato seedlings. The following day the seedlings were inoculated with a spore suspension of Botrytis cinerea (the causal agent of tomato Botrytis) and incubated in saturated atmosphere at 20° C. for 48 h, and then moved to a growth chamber at 24° C. for 3 additional days, after which time visual disease ratings were made.

[3] = system: Septoria tritici; assay: Test F: wheat leaf blotch, preventive spray on wheat seedlings, visual disease rating; assay type: in vivo; conditions: 100 = 100% disease control; for pest or weed control at 200 µg/mL: Zymoseptoria tritici; for pest or weed control at 200 µg/mL / Test F rating (disease control): 0 = no disease control relative to the controls; for Test F rating (% disease control): preventive spray, rating without asterisk
Source text: (§1) A hyphen (-) indicates no test results.

[4] = system: Blumeria graminis f. sp. tritici; assay: Test I: wheat powdery mildew, preventive spray on wheat seedlings, visual disease rating; conditions: 100 = 100% disease control; for pest or weed control at 200 µg/mL: Blumeria graminis, in Triticum aestivum, read-out: Test I rating (disease control), wheat powdery mildew; for pest or weed control at 200 µg/mL / Test I rating (disease control): 0 = no disease control relative to the controls; for Test I rating (% disease control) / Test I rating (disease control): wheat powdery mildew; for Test I rating (% disease control): preventive spray, rating without asterisk
[5] = system: Puccinia recondita f. sp. tritici; assay: Test G: wheat leaf rust, spray after inoculation (curative) on wheat seedlings, visual disease rating; assay type: in vivo; conditions: 100 = 100% disease control; for pest or weed control at 200 µg/mL / Test G rating (disease control): sprayed after inoculation, 0 = no disease control; for Test G rating (% disease control): spray after inoculation, rating without asterisk
Source text: as §1

[6] = system: Septoria nodorum; assay: Test E: Septoria glume blotch, preventive spray on wheat seedlings, visual disease rating; conditions: 100 = 100% disease control; for pest or weed control at 200 µg/mL: Parastagonospora nodorum, in Triticum aestivum, read-out: Test E rating (disease control), Septoria glume blotch; for pest or weed control at 200 µg/mL / Test E rating (disease control): 0 = no disease control relative to the controls; for Test E rating (% disease control): Septoria glume blotch on wheat, preventive spray, rating without asterisk; for Test E rating (disease control): Septoria glume blotch
[7] = system: Puccinia recondita f. sp. tritici; assay: Test H: wheat leaf rust, preventive spray on wheat seedlings, visual disease rating; conditions: 100 = 100% disease control; for pest or weed control at 200 µg/mL: read-out: Test H rating (disease control), wheat leaf rust, sprayed the day before inoculation; for pest or weed control at 200 µg/mL / Test H rating (disease control): 0 = no disease control; for Test H rating (% disease control) / Test H rating (disease control): wheat leaf rust; for Test H rating (% disease control): preventive spray, rating without asterisk; for Test H rating (disease control): sprayed the day before inoculation

| SMILES | pest or weed control at 200 µg/mL [1] [%] | pest or weed control at 200 µg/mL [2] [%] | pest or weed control at 200 µg/mL [3] [%] | pest or weed control at 200 µg/mL [4] [%] | pest or weed control at 200 µg/mL [5] [%] | pest or weed control at 200 µg/mL [6] [%] | pest or weed control at 200 µg/mL [7] [%] | Test B rating (% disease control) [1] [%] | Test A rating (% disease control) [2] [%] | Test F rating (% disease control) [3] [%] | Test I rating (% disease control) [4] [%] | Test G rating (% disease control) [5] [%] | Test E rating (% disease control) [6] [%] | Test B rating (disease control) [1] [%] | Test A rating (disease control) [2] [%] | Test F rating (disease control) [3] [%] | Test I rating (disease control) [4] [%] | Test G rating (disease control) [5] [%] | Test E rating (disease control) [6] [%] | Test H rating (disease control) [7] [%] | other results |
| --- | --- | --- | --- | --- | --- | --- | --- | --- | --- | --- | --- | --- | --- | --- | --- | --- | --- | --- | --- | --- | --- |
| Cc1nn(C)c(Nc2c(F)cccc2F)c1-c1ccc(F)cc1Cl [Compound 46, 4-(2-chloro-4-fluorophenyl)-N-(2,6-difluorophenyl)-1,3-dimethyl-1H-pyrazol-5-amine] | 100 | 100 | 100 | 100 | 0 | 87 | 99 | – | – | – | – | – | – | – | – | – | – | – | – | – | – |
| COc1ccc(-c2c(C)nn(C)c2Nc2c(F)cc(Cl)cc2F)c(Cl)c1 [compound 204] | – | – | – | – | – | – | – | 99 | 99 | 100 | 100 | 99 | 99 | – | – | – | – | – | – | – | Test H rating (% disease control) [7]: 100% |
| Cc1nn(C)c(Nc2ccc(Br)cc2F)c1-c1ccc(F)cc1F [compound 154] | – | – | – | – | – | – | – | – | – | – | – | – | – | 9 | 100 | 100 | 99 | 68 | 0 | 98 | – |
| Cc1nn(C)c(Nc2c(F)cc(F)cc2F)c1-c1c(F)cccc1Cl [compound 56] | – | – | – | – | – | – | – | – | – | – | – | – | – | 100 | 98 | 100 | 99 | 0 | 0 | 97 | – |
| Cc1nn(C)c(Nc2c(F)cc(Cl)cc2F)c1-c1ccc(C#N)cc1Cl [Compound 111, 3-chloro-4-[5-[(4-chloro-2,6-difluorophenyl)amino]-1,3-dimethyl-1H-pyrazol-4-yl]benzonitrile] | 97 | 100 | 100 | 99 | 94 | 95 | 100 | – | – | – | – | – | – | – | – | – | – | – | – | – | – |
| Cc1nn(C)c(Nc2c(F)cc(F)cc2Br)c1-c1ccc(F)cc1Cl [Compound 144, N-(2-bromo-4,6-difluorophenyl)-4-(2-chloro-4-fluorophenyl)-1,3-dimethyl-1H-pyrazol-5-amine] | 99 | 100 | 100 | 100 | 100 | 100 | 100 | – | – | – | – | – | – | – | – | – | – | – | – | – | – |
| CCOc1ccc(Nc2c(-c3ccc(F)cc3Cl)c(C)nn2C)c(Cl)c1 [compound 104] | – | – | – | – | – | – | – | – | – | – | – | – | – | 0 | 100 | 100 | 99 | 0 | 0 | 97 | – |
| Cc1nn(C)c(C(O)c2ccc(F)cc2Cl)c1-c1ccc(F)cc1Cl (stereo not drawn) [Compound 123, α,4-bis(2-chloro-4-fluorophenyl)-1,3-dimethyl-1H-pyrazole-5-methanol] | 86 | 100 | 100 | 95 | 6 | 60 | 100 | – | – | – | – | – | – | – | – | – | – | – | – | – | – |
| Cc1nn(C)c(Nc2ccc(Cl)cc2Cl)c1-c1c(F)cccc1F [compound 50] | – | – | – | – | – | – | – | – | – | – | – | – | – | 99 | 100 | 95 | 100 | 0 | 73 | 93 | – |
| CCOc1ccc(-c2c(C)nn(C)c2Nc2ccc(F)cc2F)c(Cl)c1 [compound 209] | – | – | – | – | – | – | – | 95 | 98 | 100 | 100 | 0 | 0 | – | – | – | – | – | – | – | Test H rating (% disease control) [7]: 92% |
| Cc1nn(C)c(Nc2ccc(F)cc2Br)c1-c1ccc(F)cc1F [Compound 118, N-(2-bromo-4-fluorophenyl)-4-(2,4-difluorophenyl)-1,3-dimethyl-1H-pyrazol-5-amine] | 93 | 100 | 100 | 100 | 75 | 69 | 97 | – | – | – | – | – | – | – | – | – | – | – | – | – | – |
| Cc1nn(C)c(Nc2c(Cl)cc(Cl)cc2I)c1-c1ccc(F)cc1F [compound 210] | – | – | – | – | – | – | – | 0 | 3 | 100 | 0 | 0 | 0 | – | – | – | – | – | – | – | Test H rating (% disease control) [7]: 97% |
| Cc1nn(C)c(Nc2c(Cl)cc(Cl)cc2I)c1-c1ccc(F)cc1Cl [compound 197] | – | – | – | – | – | – | – | 77 | 100 | 100 | 94 | 9 | 0 | – | – | – | – | – | – | – | Test H rating (% disease control) [7]: 97% |
| Cc1nn(C)c(Nc2c(Cl)cc(Br)cc2Cl)c1-c1ccc(F)cc1F [compound 155] | – | – | – | – | – | – | – | – | – | – | – | – | – | 0 | 100 | 100 | 99 | 94 | 0 | 97 | – |
| Cc1nn(C)c(Oc2c(F)cc(C#N)cc2F)c1-c1ccccc1Br [compound 76] | – | – | – | – | – | – | – | – | – | – | – | – | – | 97 | 100 | 99 | 99 | 0 | 99 | 99 | – |
| Cc1nn(C)c(Oc2c(F)cc(C#N)cc2F)c1-c1ccc(F)cc1Cl [Compound 13, 4-[[4-(2-chloro-4-fluorophenyl)-1,3-dimethyl-1H-pyrazol-5-yl]oxy]-3,5-difluorobenzonitrile] | 100 | 100 | 100 | 100 | 7 | 100 | 100 | – | – | – | – | – | – | – | – | – | – | – | – | – | – |
| Cc1nn(C)c(Nc2c(Cl)cc(F)cc2Cl)c1-c1ccc(F)cc1F [Compound 137, N-(2,6-dichloro-4-fluorophenyl)-4-(2,4-difluorophenyl)-1,3-dimethyl-1H-pyrazol-5-amine] | 95 | 100 | 100 | 100 | 87 | 87 | 99 | – | – | – | – | – | – | – | – | – | – | – | – | – | – |
| COc1ccc(-c2c(C)nn(C)c2Nc2c(F)cc(F)cc2Cl)c(Cl)c1 [compound 203] | – | – | – | – | – | – | – | 100 | 95 | 100 | 98 | 79 | 73 | – | – | – | – | – | – | – | Test H rating (% disease control) [7]: 100% |
| Cc1nn(C)c(Nc2c(F)cc(F)cc2I)c1-c1ccc(F)cc1Cl [compound 213] | – | – | – | – | – | – | – | 100 | 100 | 100 | 100 | 100 | 100 | – | – | – | – | – | – | – | Test H rating (% disease control) [7]: 100% |
| Cc1nn(C)c(Nc2ccc(Br)cc2Cl)c1-c1ccc(F)cc1Cl [compound 172] | – | – | – | – | – | – | – | – | – | – | – | – | – | 73 | 100 | 100 | 100 | 0 | 60 | 100 | – |
